Measurements published in patent US7608726B2, “Substituted indolepyridinium as anti-infective compounds” (Tibotec Pharmaceuticals Ltd., priority 2002, dated 2009).

Experiments:
Format in all cases: cell-based
[1] = system: wild type HIV-LAI strain; experiment: Antiviral cellular assay (MT4 cells, MTT), wild type HIV-1 strain LAI; settings: Human immunodeficiency virus 1, MT4; read-out: EC50, inhibition of wild-type HIV-LAI strain
Experimental: The compounds of the present invention were examined for anti-viral activity in a cellular assay. […] The cellular assay was performed according to the following procedure.
(§1) HIV- or mock-infected MT4 cells were incubated for five days in the presence of various concentrations of the inhibitor. At the end of the incubation period, the replicating virus in the control cultures has killed all HIV-infected cells in the absence of any inhibitor. Cell viability was determined by measuring the concentration of MTT, a yellow, water soluble tetrazolium dye that is converted to a purple, water insoluble formazan in the mitochondria of living cells only. Upon solubilization of the resulting formazan crystals with isopropanol, the absorbance of the solution was monitored at 540 nm. The values correlate directly to the number of living cells remaining in the culture at the completion of the five day incubation. The inhibitory activity of the compound was monitored on the virus-infected cells and was expressed as EC50 and EC90. These values represent the amount of the compound required to protect 50% and 90%, respectively, of the cells from the cytopathogenic effect of the virus. The toxicity of the compound was measured on the mock-infected cells and was expressed as CC50, which represents the concentration of compound required to inhibit the growth of the cells by 50%. The selectivity index (SI) (ratio CC50/EC50) is an indication of the selectivity of the anti-HIV activity of the inhibitor. Wherever results are reported as e.g. pEC50 or pCC50 values, the result is expressed as the negative logarithm of the result expressed as EC50 or CC50 respectively.
As a measure of the broad spectrum activity of the present compounds, the EC50 was determined. […] The fold resistance rounded to the nearest integer is mentioned between brackets.
(§2) Row WT: pEC50 against wild type HIV-LAI strain. The toxicity (Tox) is expressed as the pCC50 value as determined with mock transfected cells. ND means not determined.

[2] = system: HIV mutant I (K101E, K103N); experiment: Antiviral cellular assay, mutant HIV strain I; settings: EC50 mutant/EC50 wild type, rounded to nearest integer
Experimental: as §1, with “The toxicity of the compound was measured on the mock-infected cells and was expressed as CC50, which represents the concentration of compound required to inhibit the growth of the cells by 50%. The selectivity index (SI) (ratio CC50/EC50) is an indication of the selectivity of the anti-HIV activity of the inhibitor.” left out, “respectively. […]” for “respectively.”
as §2

[3] = system: HIV-2; experiment: Antiviral cellular assay, HIV-2; settings: Human immunodeficiency virus 2; read-out: pEC50 towards HIV-2 (converted)
Experimental: as §1, with “The toxicity of the compound was measured on the mock-infected cells and was expressed as CC50, which represents the concentration of compound required to inhibit the growth of the cells by 50%. The selectivity index (SI) (ratio CC50/EC50) is an indication of the selectivity of the anti-HIV activity of the inhibitor.” left out
as §2

[4] = system: HIV mutant D (L100I; K103N); experiment: Antiviral cellular assay, mutant HIV strain D; settings: EC50 mutant/EC50 wild type, rounded to nearest integer
Experimental: as §1, with “The toxicity of the compound was measured on the mock-infected cells and was expressed as CC50, which represents the concentration of compound required to inhibit the growth of the cells by 50%. The selectivity index (SI) (ratio CC50/EC50) is an indication of the selectivity of the anti-HIV activity of the inhibitor.” left out, “respectively. […]” for “respectively.”
as §2

[5] = system: HIV mutant F (Y188L); experiment: Antiviral cellular assay, mutant HIV strain F; settings: EC50 mutant/EC50 wild type, rounded to nearest integer
Experimental: as §1, with “The toxicity of the compound was measured on the mock-infected cells and was expressed as CC50, which represents the concentration of compound required to inhibit the growth of the cells by 50%. The selectivity index (SI) (ratio CC50/EC50) is an indication of the selectivity of the anti-HIV activity of the inhibitor.” left out, “respectively. […]” for “respectively.”
as §2

[6] = system: HIV mutant G (V106A, F227L); experiment: Antiviral cellular assay, mutant HIV strain G; settings: EC50 mutant/EC50 wild type, rounded to nearest integer
Experimental: as §1, with “The toxicity of the compound was measured on the mock-infected cells and was expressed as CC50, which represents the concentration of compound required to inhibit the growth of the cells by 50%. The selectivity index (SI) (ratio CC50/EC50) is an indication of the selectivity of the anti-HIV activity of the inhibitor.” left out, “respectively. […]” for “respectively.”
as §2

[7] = system: HIV mutant J (131L, L100I, K103N, E138G, Y181C, L214F); experiment: Antiviral cellular assay, mutant HIV strain J; settings: EC50 mutant/EC50 wild type, rounded to nearest integer
Experimental: as §1, with “The toxicity of the compound was measured on the mock-infected cells and was expressed as CC50, which represents the concentration of compound required to inhibit the growth of the cells by 50%. The selectivity index (SI) (ratio CC50/EC50) is an indication of the selectivity of the anti-HIV activity of the inhibitor.” left out, “respectively. […]” for “respectively.”
as §2

[8] = system: HIV mutant K (multiple RT mutations, Table 1); experiment: Antiviral cellular assay, mutant HIV strain K; settings: EC50 mutant/EC50 wild type, rounded to nearest integer
Experimental: as §1, with “The toxicity of the compound was measured on the mock-infected cells and was expressed as CC50, which represents the concentration of compound required to inhibit the growth of the cells by 50%. The selectivity index (SI) (ratio CC50/EC50) is an indication of the selectivity of the anti-HIV activity of the inhibitor.” left out, “respectively. […]” for “respectively.”
as §2

[9] = system: HIV mutant A (Y181C); experiment: Antiviral cellular assay, mutant HIV strain A; settings: EC50 mutant/EC50 wild type, rounded to nearest integer
Experimental: as §1, with “The toxicity of the compound was measured on the mock-infected cells and was expressed as CC50, which represents the concentration of compound required to inhibit the growth of the cells by 50%. The selectivity index (SI) (ratio CC50/EC50) is an indication of the selectivity of the anti-HIV activity of the inhibitor.” left out, “respectively. […]” for “respectively.”
as §2

[10] = system: SIV (simian immunodeficiency virus); experiment: Antiviral cellular assay, SIV; settings: read-out: pEC50 towards SIV (converted)
[11] = system: HIV mutant H (K103N, Y181C); experiment: Antiviral cellular assay, mutant HIV strain H; settings: EC50 mutant/EC50 wild type, rounded to nearest integer
Experimental: as §1, with “The toxicity of the compound was measured on the mock-infected cells and was expressed as CC50, which represents the concentration of compound required to inhibit the growth of the cells by 50%. The selectivity index (SI) (ratio CC50/EC50) is an indication of the selectivity of the anti-HIV activity of the inhibitor.” left out, “respectively. […]” for “respectively.”
as §2

[12] = system: HIV mutant E (F227C); experiment: Antiviral cellular assay, mutant HIV strain E; settings: EC50 mutant/EC50 wild type, rounded to nearest integer
Experimental: as §1, with “The toxicity of the compound was measured on the mock-infected cells and was expressed as CC50, which represents the concentration of compound required to inhibit the growth of the cells by 50%. The selectivity index (SI) (ratio CC50/EC50) is an indication of the selectivity of the anti-HIV activity of the inhibitor.” left out, “respectively. […]” for “respectively.”
as §2

[13] = system: HIV mutant C (L100I; K103N); experiment: Antiviral cellular assay, mutant HIV strain C; settings: EC50 mutant/EC50 wild type, rounded to nearest integer
Experimental: as §1, with “The toxicity of the compound was measured on the mock-infected cells and was expressed as CC50, which represents the concentration of compound required to inhibit the growth of the cells by 50%. The selectivity index (SI) (ratio CC50/EC50) is an indication of the selectivity of the anti-HIV activity of the inhibitor.” left out, “respectively. […]” for “respectively.”
as §2

[14] = system: HIV mutant B (K103N); experiment: Antiviral cellular assay, mutant HIV strain B; settings: EC50 mutant/EC50 wild type, rounded to nearest integer
Experimental: as §1, with “The toxicity of the compound was measured on the mock-infected cells and was expressed as CC50, which represents the concentration of compound required to inhibit the growth of the cells by 50%. The selectivity index (SI) (ratio CC50/EC50) is an indication of the selectivity of the anti-HIV activity of the inhibitor.” left out, “respectively. […]” for “respectively.”
as §2

Cn1c2ccccc2c2c1cc(-c1noc(C(F)(F)F)n1)c(=O)n2-c1ccc([N+](=O)[O-])cc1 [Compound 72, 5-Methyl-1-(4-nitro-phenyl)-3-(5-trifluoromethyl-[1,2,4]oxadiazol-3-yl)-1,5-dihydropyrido[3,2-b]indol-2-one]
EC50 [1]: < 1 µM

Cn1c2ccccc2c2c1cc(C(N)=O)c(=O)n2-c1ccc([N+](=O)[O-])cc1 [Compound 76]
EC50 [1]: 1 to 32 µM

N#Cc1cc2[nH]c3ccccc3c2n(-c2ccc([N+](=O)[O-])cc2)c1=O [Compound 1, 1-(4-nitrophenyl)-2-oxo-2,5-dihydro-1H-pyrido[3,2-b]indole-3-carbonitrile]
fold resistance mutant I (between brackets) [2]: 3 | EC50 [3]: 6.31 µM | fold resistance mutant D (between brackets) [4]: 3 | fold resistance mutant F (between brackets) [5]: 4 | fold resistance mutant G (between brackets) [6]: 2 | fold resistance mutant J (between brackets) [7]: 5 | fold resistance mutant K (between brackets) [8]: 1 | fold resistance mutant A (between brackets) [9]: 8 | EC50 [10]: 7.94 µM | fold resistance mutant H (between brackets) [11]: 5 | fold resistance mutant E (between brackets) [12]: 6 | fold resistance mutant C (between brackets) [13]: 8 | fold resistance mutant B (between brackets) [14]: 4
